According to US7902138B2, “Liquid detergent composition” (The Sun Products Corporation, priority 2003, dated 2011):

Test system: Protease enzyme
Assay: Residual protease activity in liquid detergent formulation after storage at 37° C. (tetrapeptide substrate assay)
Format: biochemical
Settings: activity determined at 40° C., TRIS pH 9, relative to t=0; for Residual activity after 2 weeks, 0.05% BHT / Residual activity after 4 weeks, 0.05% BHT: 'base' liquid detergent formulation + 0.06% by weight perfume component + 0.05% by weight BHT; for Residual activity after 2 weeks, 0.05% BHT / Residual activity after 2 weeks, No BHT: 2 weeks storage at 37° C.; for Residual activity after 4 weeks, 0.05% BHT / Residual activity after 4 weeks, No BHT: 4 weeks storage at 37° C.; for Residual activity after 2 weeks, No BHT / Residual activity after 4 weeks, No BHT: 'base' liquid detergent formulation + 0.06% by weight perfume component
Procedure: To various samples of this ‘base’ liquid formulation 0.06% by weight based on said formulation of several types of perfume component—as indicated in the tables below—were added such that, as a result, each sample contains a different type of perfume component. To other samples of this ‘base’ formulation not only 0.06% by weight of said perfume components but also 0.05% by weight BHT (2,6-di-tert-butyl hydroxy toluene) were added.
The residual activity of the protease enzyme in all thus-formed formulations after 2 weeks and 4 weeks storage at 37° C., was determined at 40° C. in a TRIS pH 9 buffer and using tetrapeptide as substrate. For this determination, the following protocol was used:
Samples of 70 mg of the tested liquid formulation were diluted in 10.00 ml MilliQ water. 10 μl of this solution was added to an assay of 205 μl containing 74.4 mM TRIS pH9 and 0.494 mM tetrapeptide (succinyl-Ala-Ala-Pro-Phe-p-Nitroanilide). The absorbance of the tested samples at a wavelength of 450 nm was measured for 15 minutes at 40° C., using a spectrophotometer. The absolute changes in absorbance as compared to the absorbance measured on a freshly prepared calibration sample were correlated to the measured activity of such freshly prepared sample. The measured protease enzyme activity is expressed as GU/ml.
The residual enzyme activity (expressed as %) is the enzyme activity after storage of the liquid formulation concerned divided by the enzyme activity measured at t=0.
Tables 1 and 2 show the effect of the addition of 0.05% by weight of BHT on the residual enzyme activity in ‘base’ liquid detergent formulations additionally containing 0.06% by weight of the indicated perfume components, after 2 weeks storage at 37° C. respectively 4 weeks storage at 37° C.

Residual activity after 2 weeks, 0.05% BHT | Residual activity after 4 weeks, 0.05% BHT | Residual activity after 2 weeks, No BHT | Residual activity after 4 weeks, No BHT | Compound
85% | 79% | 51% | 17% | CC1=CCC(=C(C)C)CC1 [Terpinolene]
82% | 72% | 16% | 5% | CC1=CC(C)C(C=O)CC1 (centres unmarked) [Zestover]
70% | 54% | 14% | 4% | CCCCCCCCCCC=CC=O [Tridecyclenaldehyde]

Further lines, the compound ahead of its results:

Compound | Residual activity after 2 weeks, 0.05% BHT | Residual activity after 4 weeks, 0.05% BHT | Residual activity after 2 weeks, No BHT | Residual activity after 4 weeks, No BHT
CC(C)=C1CC[C@@H](C)CC1=O [Pulegone] | 82% | 76% | 45% | 16%
CC(C=O)Cc1ccc(C(C)(C)C)cc1 (centres unmarked) [Lilial] | 80% | 68% | 39% | 9%
Octenal | 68% | 46% | 13% | 3%
Terpinegene G | 72% | 62% | 48% | 23%
CCC(=O)/C=C/C1C(C)=CCCC1(C)C (stereo not drawn) [Alpha methylionone] | 84% | 78% | 39% | 14%
